For 1 compound, Ki results are on record in US6462072B1, “Cyclic ester or amide derivatives” (GPI NIL Holdings, Inc., priority 1998, dated 2002).

The target in this assay is FKBP (Homo sapiens, UniProt P62942). Kind of assay: Ki test procedure: inhibition of peptidyl-prolyl isomerase (rotamase) activity, chymotrypsin-coupled assay. Type of assay: biochemical. As to conditions: read-out: Ki (apparent Ki, rotamase inhibition). The source says: Inhibition of the peptidyl-prolyl isomerase (rotamase) activity of the inventive compounds can be evaluated by known methods described in the literature (Harding, M. W. et al. Nature 341: 758-760 (1989); Holt et al. J. Am. Chem. Soc. 115: 9923-9938). These values are obtained as apparent Ki's and are presented in Table I. The cis-trans isomerization of an alanine-proline bond in a model substrate, N-succinyl-Ala-Ala-Pro-Phe-p-nitroanilide, is monitored spectro-photometrically in a chymotrypsin-coupled assay, which releases para-nitroanilide from the trans form of the substrate. The inhibition of this reaction caused by the addition of different concentrations of inhibitor is determined, and the data is analyzed as a change in first-order rate constant as a function of inhibitor concentration to yield the apparent Kivalues.
Chain of FKBP (P62942 whole entry): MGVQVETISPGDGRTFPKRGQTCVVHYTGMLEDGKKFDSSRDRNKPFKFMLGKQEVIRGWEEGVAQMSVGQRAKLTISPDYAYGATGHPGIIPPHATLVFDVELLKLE
In a plastic cuvette are added […] of ice cold assay buffer (25 mM HEPES, pH 7.8, 100 mM NaCl), […] of FKBP (2.5 mM in 10 mM Tris-Cl pH 7.5, 100 mM NaCl, 1 mM dithiothreitol), […] of chymotrypsin (50 mg/mL in 1 mM HCl) and 10 mL of test compound at various concentrations in dimethyl sulfoxide. […]
The absorbance at 390 nm versus time is monitored for 90 sec using a spectrophotometer and the rate constants are determined from the absorbance versus time data files.

`CCC(C)(C)C(=O)C(=O)N1CCC[C@H]1C(=O)OC1CCC(c2ccccc2)(c2ccccc2)CC1` [4,4-diphenylcyclohexl (2S)-1-(3,3-dimethyl-2-oxopentanoyl)-pyrrolidine-2-carboxylate]: the Ki worked out at 5.64 µM.
